Results as given in patent US20160137639A1, “TRIAZOLE-ISOXAZOLE COMPOUND AND MEDICAL USE THEREOF” (JAPAN TOBACCO INC., priority 2012, published 2016).
Like-named read-outs stand apart in the source and are kept apart here.

Experiments:
human RORγ = biological target: T1, human RORγ (Homo sapiens, UniProt P51449); assay: Luciferase reporter gene assay of inhibitory effect against RORγ transcriptional activity (GAL4-hRORγ plasmid in CHO cells); assay type: cell-based
T1 construct: human, NM_005060.3 and from Ser253 to Lys518; expressed in transfected cells; host or cells: CHO cells (transient co-transfection with pG5-Luc reporter)
T1 sequence (P51449 253-518): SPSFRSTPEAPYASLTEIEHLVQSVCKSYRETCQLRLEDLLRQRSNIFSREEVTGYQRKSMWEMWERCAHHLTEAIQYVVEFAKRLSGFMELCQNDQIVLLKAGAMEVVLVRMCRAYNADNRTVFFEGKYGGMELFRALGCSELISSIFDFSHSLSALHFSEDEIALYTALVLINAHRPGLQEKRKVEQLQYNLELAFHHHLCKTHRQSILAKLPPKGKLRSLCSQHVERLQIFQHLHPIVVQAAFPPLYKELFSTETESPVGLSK

mouse RORγ = biological target: T2, mouse RORγ (Mus musculus, UniProt P51450); assay: Luciferase reporter gene assay of inhibitory effect against RORγ transcriptional activity (GAL4-mRORγ plasmid in CHO cells); assay type: cell-based
T2 construct: mouse, NM_011281.2 and from Ile251 to Lys516; expressed in transfected cells; host or cells: CHO cells (transient co-transfection with pG5-Luc reporter)
T2 sequence (P51450 251-516): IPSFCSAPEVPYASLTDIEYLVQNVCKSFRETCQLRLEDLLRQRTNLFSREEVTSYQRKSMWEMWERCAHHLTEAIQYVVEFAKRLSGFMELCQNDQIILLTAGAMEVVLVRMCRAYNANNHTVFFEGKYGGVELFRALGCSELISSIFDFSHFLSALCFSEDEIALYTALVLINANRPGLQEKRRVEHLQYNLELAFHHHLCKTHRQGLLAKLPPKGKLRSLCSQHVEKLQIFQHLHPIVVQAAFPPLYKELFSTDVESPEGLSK
Outline: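 Readout is intracellular luciferase after 2-day compound exposure (8 concentrations, 0.1% DMSO) in CHO cells expressing GAL4 fused to mouse RORγ LBD residues Ile251–Lys516 plus pG5-Luc reporter. EC50 fitted from %-of-control; points showing resazurin-detected cytotoxicity dropped.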

SMILES	EC50 (human RORγ; read-out: LUC EC50 hRORg) [µM]	EC50 (mouse RORγ; read-out: LUC EC50 mRORg) [µM]	EC50 (human RORγ; read-out: LUC EC50 (μM) hRORg) [µM]	EC50 (mouse RORγ; read-out: LUC EC50 (μM) mRORg) [µM]
CC(=O)N1CC(c2noc([C@H]3C[C@@H](CC(C)(C)C)C3)c2C2CC2)[C@@H](C(=O)Nc2ccc(C)cc2Cl)C1 (stereo partly shown) [Example F-686]	< 3	< 3	–	–
Cc1ccc(NC(=O)CCc2nnc([C@H]3C[C@@H](CC(C)C)C3)n2C2CC2)c(C)c1 [Example F-358]	–	–	< 3	< 3
Cc1cc(C#N)ccc1NC(=O)CCc1nnc(CCC(C)C)n1C1CC1 [Example F-161]	–	–	> 3	> 3
CC(=O)NCCC(CC(=O)Nc1ccc(C)cc1C)c1nnc(CCCC(C)C)n1C1CC1 (racemic) [Example F-275]	–	–	> 3	> 3
CC(=O)N1C[C@H](C(=O)Nc2ccc(C)cc2C)[C@@H](c2nnc([C@H]3C[C@H](OC(C)C)C3)n2C2CC2)C1 (racemic) [Example F-329]	–	–	> 3	> 3
CC(=O)N1C[C@@H](C(=O)Nc2ccc(C)cc2C)[C@H](c2nnc(-c3ccc(C(C)C)cc3)n2C2CC2)C1 [Example F-372]	–	–	> 3	> 3
Cc1ccc(NC(=O)C[C@H](CC(C)C)c2nnc(-c3cc(CC(C)(C)C)on3)n2C2CC2)c(C)c1 [Example F-625]	< 3	< 3	–	–
CCn1c(CCC(=O)Nc2cccc3ccccc23)nnc1C1CCCCC1 [Example F-20]	–	–	> 3	> 3
CC(=O)N1C[C@H](C(=O)Nc2ccc(C)cc2C)[C@@H](c2nnc(-c3ccc(C(C)C)cc3)n2C2CC2)C1 (racemic) [Example F-319]	–	–	< 3	< 3
CCn1c(CCC(=O)Nc2cccc3c2CCCC3)nnc1C1Cc2ccccc2C1 [Example F-7]	–	–	> 3	< 3
CC(=O)N1C[C@H](C(=O)Nc2ccc(C)cc2C)[C@@H](c2nnc(C3CC3CC(C)C)n2C2CC2)C1 (mixture of isomers) [Example F-341]	–	–	< 3	< 3
Cc1ccc(NC(=O)C[C@H](CCC(=O)O)n2nnc([C@H]3C[C@@H](CC(C)(C)C)C3)c2C2CC2)c(Cl)c1 [Example F-682, (S)-5-(2-chloro-4-methyl-phenylcarbamoyl)-4-{5-cyclopropyl-4-[3-(2,2-dimethyl-propyl)-cyclobutyl]-[1,2,3]triazol-1-yl}pentanoic acid]	< 3	< 3	–	–
Cc1ccc(NC(=O)C[C@@H](CCO)c2nnc(CCC3CCCCC3)n2C2CC2)c(C)c1 [Example F-384]	–	–	> 3	> 3
Cc1ccc(NC(=O)CC(Cc2nnn[nH]2)c2nnc([C@H]3C[C@@H](CC(C)C)C3)n2C2CC2)c(C)c1 (mixture of isomers) [Example F-481]	–	–	> 3	> 3
CN[C@@H](CC(=O)Nc1ccc(C)cc1C)c1nnc(CCCC(C)(C)C)n1C1CC1 [Example F-353]	–	–	< 3	< 3
O=C(CCc1nnc(C2Cc3ccccc3C2)n1C1CC1)Nc1cccc2ccccc12 [Example F-4]	–	–	< 3	< 3
CC(=O)N1C[C@H](C(=O)Nc2ccc(C)cc2C)[C@@H](c2nnc(C3CN(C(=O)CC(C)(C)C)C3)n2C2CC2)C1 (racemic) [Example F-417]	–	–	> 3	> 3
Cc1ccc(NC(=O)[C@H]2CN(CC(F)(F)F)C[C@@H]2c2nnc([C@H]3C[C@@H](CC(C)(C)C)C3)n2C2CC2)c(C)c1 [Example F-541]	< 3	< 3	–	–
Cc1ccc(NC(=O)CCc2noc([C@H]3C[C@@H](CC(C)(C)C)C3)c2C2CC2)c(C)c1 [Example F-721]	< 3	< 3	–	–
CC(C)CCc1nnc(CCC(=O)Nc2ccccc2)n1C1CC1 [Example F-56]	–	–	> 3	> 3
CC(C)(C)C[C@H]1C[C@@H](c2noc([C@@H](CCC(=O)O)CC(=O)Nc3ccc(Cl)cc3Cl)c2C2CC2)C1 [Example F-718]	< 3	< 3	–	–
Cc1c(Cl)cccc1NC(=O)CCc1nnc(C(O)CC(C)C)n1C1CC1 (racemic) [Example F-182]	–	–	> 3	< 3
Cc1ccc(NC(=O)CCc2nnc(CCC(C)C)n2C2CC2)cc1 [Example F-66]	–	–	> 3	> 3
COc1ccccc1CNC(=O)CCc1nnc(CCC(C)C)n1C1CC1 [Example F-179]	–	–	> 3	> 3
COc1cc(C)ccc1CNC(=O)CCc1nnc(CCC2CCCCC2)n1C1CC1 [Example F-188]	–	–	< 3	< 3

SMILES	EC50 (human RORγ; read-out: LUC EC50 hRORg) [µM]	EC50 (mouse RORγ; read-out: LUC EC50 mRORg) [µM]	EC50 (human RORγ; read-out: LUC EC50 (μM) hRORg) [µM]	EC50 (mouse RORγ; read-out: LUC EC50 (μM) mRORg) [µM]
Cc1c(Cl)cccc1NC(=O)CCc1nnc(CCC(=O)N(C)C)n1C1CC1 [Example F-184]	–	–	> 3	> 3
CC(=O)N1C[C@H](C(=O)Nc2ccc(C)cc2C)[C@@H](c2nnc(C(O)CCC(C)(C)C)n2C2CC2)C1 (single isomer, unassigned) [Example F-348]	–	–	> 3	> 3
C=C1C[C@H](C(=O)Nc2ccc(C)cc2C)[C@@H](c2nnc([C@H]3C[C@@H](CC(C)C)C3)n2C2CC2)C1 (racemic) [Example F-517]	< 3	< 3	–	–
Cc1ccc(NC(=O)CC(CN(C)C)c2nnc(CCCC(C)C)n2C2CC2)c(C)c1 (racemic) [Example F-278]	–	–	> 3	< 3
C=CCC(CC(=O)NCc1ccc(C)cc1OC)c1nnc(CCCC(C)C)n1C1CC1 (racemic) [Example F-200]	–	–	< 3	< 3
CC(C)CCc1nnc(CCC(=O)Nc2ccccc2C(C)C)n1C1CC1 [Example F-75]	–	–	> 3	> 3
Cc1ccc(NC(=O)[C@H]2CN(S(=O)(=O)C(C)C)C[C@@H]2c2nnc([C@H]3C[C@@H](CC(C)(C)C)C3)n2C2CC2)c(C)c1 [Example F-552]	< 3	< 3	–	–
Cc1cc(F)ccc1NC(=O)[C@@H]1CC(F)(F)C[C@H]1c1nnc(-c2cc(CC(C)C)on2)n1C1CC1 [Example F-593]	> 3	< 3	–	–
CCC[C@@H](CC(=O)Nc1ccc(C)cc1C)c1nnc(CCCC(C)(C)C)n1C1CC1 [Example F-528]	< 3	< 3	–	–
Cc1c(Cl)cccc1NC(=O)CCc1nnc(CCCC(C)(C)C(=O)O)n1C1CC1 [Example F-232]	–	–	> 3	> 3
CC(=O)N1C[C@H](C(=O)Nc2cccc(Cl)c2C)[C@@H](c2nnc(CCC3CCCCC3)n2C2CC2)C1 (racemic) [Example F-155]	–	–	< 3	< 3
Cc1ccc(NC(=O)C[C@H](CCC(=O)O)c2noc(-c3cc(CCC(C)C)on3)c2C2CC2)c(Cl)c1 [Example E-05]	–	–	< 3	< 3
COc1cc(C)ccc1CNC(=O)CCc1noc(C(F)(F)c2cc(C(C)(C)C)no2)c1C1CC1 [Example F-741]	< 3	< 3	–	–
Cc1ccc(NC(=O)CC(CC(=O)N2CC[C@H](O)C2)c2nnc([C@H]3C[C@@H](CC(C)C)C3)n2C2CC2)c(C)c1 (mixture of isomers) [Example F-503]	> 3	> 3	–	–
Cc1ccc(NC(=O)CCc2nnc(C3CC(CC(=O)OC(C)(C)C)C3)n2C2CC2)c(C)c1 (mixture of isomers) [Example F-427]	–	–	> 3	< 3
COc1ccc(NC(=O)CCc2nnc(CCC(C)C)n2C2CC2)c(C)c1 [Example F-82]	–	–	> 3	> 3
CCn1c(CCC(=O)Nc2cc(C)cc(C)c2)nnc1C1Cc2ccccc2C1 [Example F-16]	–	–	> 3	< 3
Cc1cc(F)ccc1NC(=O)C[C@H](OC(C)C)c1nnc(-c2cc(CC(C)C)on2)n1C1CC1 [Example F-576]	< 3	< 3	–	–
Cc1ccc(NC(=O)C[C@H](CCO)c2nnc(-c3cc(CCC(C)C)on3)n2C2CC2)c(C)c1 [Example F-615]	< 3	< 3	–	–
Cc1ccc(NC(=O)[C@H]2CC(=O)C[C@@H]2c2nnc([C@H]3C[C@@H](CC(C)C)C3)n2C2CC2)c(C)c1 (racemic) [Example F-533]	< 3	< 3	–	–
Cc1ccncc1NC(=O)CCc1nnc(CCC(C)C)n1C1CC1 [Example F-90]	–	–	> 3	> 3
Cc1ccc(NC(=O)C[C@@H](CC#N)c2nnc([C@H]3C[C@@H](CC(C)C)C3)n2C2CC2)c(C)c1 [Example F-464]	–	–	> 3	< 3
Cc1c(F)cccc1NC(=O)CCc1nnc(CCC(C)C)n1C1CC1 [Example F-101]	–	–	> 3	> 3
Cc1ccc(NC(=O)C[C@H](CC(C)C)c2nnc(-c3cc(CCC(C)C)on3)n2C2CC2)c(C)c1 [Example F-627]	< 3	< 3	–	–
CC(=O)N1C[C@H](C(=O)Nc2ccc(C)cc2C)[C@@H](c2nnc(-c3cc(CCC(C)C)on3)n2C2CC2)C1 [Example F-632]	< 3	< 3	–	–
